± gives the standard deviation of the averaged measurements.

Holding throughout (assay): level (log10 ratio to DMSO vehicle control); higher = higher biomarker level / cell amount than vehicle control
Common to all, as to conditions: in DMSO

Compound in assay [1]: O=S(=O)(O)C(F)(F)C(F)(F)C(F)(F)C(F)(F)C(F)(F)C(F)(F)C(F)(F)C(F)(F)F [Potassium perfluorooctanesulfonate]
On the procedure: (§1)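 BioMAP Diversity Plus panel of 12 human primary cell co-culture systems (3C, 4H, LPS, SAg, BT, BF4T, BE3C, CASM3C, HDF3CGF, KF3CT, MyoF, Mphg). Compounds were added 1 h before stimulation and left for 24 h (MyoF 48 h; BT 72 h for soluble read-outs or 6 d for IgG). Biomarkers were read by ELISA, cytotoxicity by SRB, PBMC viability and proliferation by Alamar Blue. Each well value was divided by the mean of 8 DMSO control wells on the same plate and log10 transformed; duplicate blinded samples were tested at 4 concentrations.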

Compound in assay [2]: CNS(=O)(=O)C(F)(F)C(F)(F)C(F)(F)C(F)(F)C(F)(F)C(F)(F)C(F)(F)C(F)(F)F [N-Methylperfluorooctanesulfonamide]
On the procedure:
as §1

Compound in assay [3]: CC(C)(C)C(=O)CC(=O)C(F)(F)C(F)(F)C(F)(F)F [(Heptafluorobutanoyl)pivaloylmethane]
On the procedure:
as §1

Compound in assay [4]: O=S(=O)(O)C(F)(F)C(F)(F)C(F)(F)C(F)(F)C(F)(F)C(F)(F)C(F)(F)C(F)(F)F [Perfluorooctanesulfonic acid]
Here is the method: as §1

Compound in assay [5]: O=C(O)CCC(F)(F)C(F)(F)C(F)(F)C(F)(F)C(F)(F)F [2H,2H,3H,3H-Perfluorooctanoic acid]
Here is the method:
as §1

Compound in assay [6]: O=C(O)C(F)(F)C(F)(F)C(F)(F)C(F)(F)C(F)(F)F [Perfluorohexanoic acid]
Here is the method: as §1

As to BT:sIL-17A, the “level (log10)” value was 0.023 ± 0.25 in assay [1] (6700 nM); 0.158 ± 0.1 in assay [1] (20000 nM); -0.133 ± 0.022 in assay [1] (60000 nM); 0.151 ± 0.14 in assay [2] (6700 nM); -0.065 ± 0.0085 in assay [2] (20000 nM); -0.0925 ± 0.3 in assay [2] (60000 nM). Further, the “level (log10)” value in assay [3] (6700 nM) was -0.0075 ± 0.013; in assay [3] (20000 nM), -0.0315 ± 0.053; in assay [3] (60000 nM), -0.194 ± 0.18; in assay [4] (6700 nM), 0.13 ± 0.18; in assay [4] (20000 nM), 0.106 ± 0.098; in assay [4] (60000 nM) it was 0.0295 ± 0.025. Besides, the “level (log10)” value was 0.0035 ± 0.021 in assay [5] (6700 nM); -0.199 ± 0.028 in assay [5] (20000 nM); -0.231 ± 0.099 in assay [5] (60000 nM); 0.009 ± 0.22 in assay [6] (6700 nM); 0.038 ± 0.075 in assay [6] (20000 nM); -0.086 ± 0.068 in assay [6] (60000 nM).
Turning to BT:sIL-17F, the “level (log10)” value was -0.085 ± 0.037 in assay [1] (6700 nM); -0.06 ± 0.11 in assay [1] (20000 nM); -0.072 ± 0.037 in assay [1] (60000 nM); 0.016 ± 0.18 in assay [2] (6700 nM); 0.066 ± 0.56 in assay [2] (20000 nM); -0.385 ± 0.26 in assay [2] (60000 nM). Further, the “level (log10)” value in assay [3] (6700 nM) was -0.069 ± 0.082; in assay [3] (20000 nM), -0.0005 ± 0.036; in assay [3] (60000 nM), -0.119 ± 0.1; in assay [4] (6700 nM) it was -0.064 ± 0.14; in assay [4] (20000 nM), -0.0825 ± 0.059; in assay [4] (60000 nM), -0.009 ± 0.018. Further, the “level (log10)” value in assay [5] (6700 nM) is -0.016 ± 0.058; in assay [5] (20000 nM) it was -0.0575 ± 0.059; in assay [5] (60000 nM), -0.01 ± 0.064; in assay [6] (6700 nM) it was -0.081 ± 0.0014; in assay [6] (20000 nM), -0.002 ± 0.081; in assay [6] (60000 nM), -0.047 ± 0.031.
With BT:sTNF-alpha, the “level (log10)” value in assay [1] (6700 nM) is 0.003 ± 0.076; in assay [1] (20000 nM), 0.0225 ± 0.069; in assay [1] (60000 nM) it was -0.039 ± 0.016; in assay [2] (6700 nM), -0.017 ± 0.055; in assay [2] (20000 nM), 0.0015 ± 0.022; in assay [2] (60000 nM) it was -0.0905 ± 0.29. The “level (log10)” value was -0.075 ± 0.064 in assay [3] (6700 nM); -0.0605 ± 0.016 in assay [3] (20000 nM); 0.0315 ± 0.18 in assay [3] (60000 nM); -0.047 ± 0.095 in assay [4] (6700 nM); -0.0585 ± 0.054 in assay [4] (20000 nM); 0.0105 ± 0.079 in assay [4] (60000 nM). Besides, the “level (log10)” value was -0.0085 ± 0.0035 in assay [5] (6700 nM); -0.0055 ± 0.074 in assay [5] (20000 nM); 0.005 ± 0.037 in assay [5] (60000 nM); -0.036 ± 0.05 in assay [6] (6700 nM); -0.023 ± 0.081 in assay [6] (20000 nM); -0.01 ± 0.11 in assay [6] (60000 nM).
Take LPS:CCL2/MCP-1: the “level (log10)” value was 0.0025 ± 0.0021 in assay [1] (6700 nM); 0.007 ± 0.016 in assay [1] (20000 nM); 0.039 ± 0.0057 in assay [1] (60000 nM); -0.0135 ± 0.0035 in assay [2] (6700 nM); 0.0125 ± 0.0021 in assay [2] (20000 nM); 0.006 ± 0.021 in assay [2] (60000 nM). For the same test system, the “level (log10)” value is -0.01 ± 0.0014 in assay [3] (6700 nM); -0.0055 ± 0.018 in assay [3] (20000 nM); 0.001 ± 0.038 in assay [3] (60000 nM); 0.0025 ± 0.00071 in assay [4] (6700 nM); 0.005 ± 0.021 in assay [4] (20000 nM); 0.0075 ± 0.005 in assay [4] (60000 nM). The “level (log10)” value in assay [5] (6700 nM) is 0.017 ± 0.011; in assay [5] (20000 nM) it was 0.018 ± 0.044; in assay [5] (60000 nM), 0.0255 ± 0.043; in assay [6] (6700 nM), -0.0035 ± 0.00071; in assay [6] (20000 nM), -0.008 ± 0.027; in assay [6] (60000 nM), -0.0045 ± 0.018.
Turning to LPS:CD40, the “level (log10)” value in assay [1] (6700 nM) is -0.062 ± 0.052; in assay [1] (20000 nM), -0.055 ± 0.014; in assay [1] (60000 nM), -0.062 ± 0.016; in assay [2] (6700 nM), -0.0545 ± 0.083; in assay [2] (20000 nM), -0.0265 ± 0.023; in assay [2] (60000 nM), -0.0375 ± 0.0078. In addition, the “level (log10)” value in assay [3] (6700 nM) is 0.0275 ± 0.066; in assay [3] (20000 nM), 0.028 ± 0.068; in assay [3] (60000 nM), 0.0515 ± 0.0021; in assay [4] (6700 nM), -0.018; in assay [4] (20000 nM), -0.0345 ± 0.022; in assay [4] (60000 nM), -0.076 ± 0.073. The “level (log10)” value in assay [5] (6700 nM) is -0.005 ± 0.047; in assay [5] (20000 nM), -0.014 ± 0.02; in assay [5] (60000 nM) it was -0.0635 ± 0.026; in assay [6] (6700 nM), 0.041 ± 0.096; in assay [6] (20000 nM), 0.038 ± 0.13; in assay [6] (60000 nM) it was 0.0215 ± 0.14.
In the case of LPS:CD62E/E-Selectin, the “level (log10)” value in assay [1] (6700 nM) is 0.0005 ± 0.037; in assay [1] (20000 nM) it was 0.0035 ± 0.00071; in assay [1] (60000 nM), 0.0205 ± 0.00071; in assay [2] (6700 nM) it was -0.024 ± 0.011; in assay [2] (20000 nM), 0.01 ± 0.02; in assay [2] (60000 nM) it was 0.03 ± 0.018. In addition, the “level (log10)” value was -0.0025 ± 0.005 in assay [3] (6700 nM); -0.0145 ± 0.021 in assay [3] (20000 nM); 0.004 ± 0.0042 in assay [3] (60000 nM); -0.002 ± 0.0014 in assay [4] (6700 nM); -0.0055 ± 0.036 in assay [4] (20000 nM); 0.019 ± 0.0028 in assay [4] (60000 nM). Besides, the “level (log10)” value is 0.0405 ± 0.029 in assay [5] (6700 nM); 0.022 ± 0.028 in assay [5] (20000 nM); 0.027 ± 0.021 in assay [5] (60000 nM); -0.01 ± 0.0042 in assay [6] (6700 nM); -0.0065 ± 0.012 in assay [6] (20000 nM); -0.003 ± 0.0028 in assay [6] (60000 nM).
With LPS:CD69, the “level (log10)” value is -0.0315 ± 0.012 in assay [1] (6700 nM); -0.046 ± 0.0057 in assay [1] (20000 nM); -0.0205 ± 0.039 in assay [1] (60000 nM); -0.068 ± 0.016 in assay [2] (6700 nM); -0.0725 ± 0.0092 in assay [2] (20000 nM); -0.0725 ± 0.0035 in assay [2] (60000 nM). In addition, the “level (log10)” value in assay [3] (6700 nM) was 0.0025 ± 0.026; in assay [3] (20000 nM), 0.007; in assay [3] (60000 nM), 0.063 ± 0.018; in assay [4] (6700 nM), -0.018 ± 0.0057; in assay [4] (20000 nM) it was -0.0385 ± 0.0021; in assay [4] (60000 nM), -0.025 ± 0.014. In addition, the “level (log10)” value in assay [5] (6700 nM) was -0.0475 ± 0.084; in assay [5] (20000 nM), -0.076 ± 0.052; in assay [5] (60000 nM), -0.135 ± 0.051; in assay [6] (6700 nM), 0.0025 ± 0.0078; in assay [6] (20000 nM), -0.0165 ± 0.0021; in assay [6] (60000 nM) it was -0.0295 ± 0.013.

Source of the values: the supplement of paper PMC10331698.
